From US4477659A, “Cephalosporin compound” (Asahi Kasei Kogyo Kabushiki Kaisha, priority 1981, dated 1984)
Values after ≈ are worked out from the molar mass of the structure shown.

Legend:
[1] = Blood concentration, oral, rats, suspended in CMC aqueous solution (Example 17); type: in vivo, Male Wistar rats; conditions: 50 mg/kg oral, rat; for concentration at 0.5 h / concentration at 1 h / concentration at 4 h: blood, read-out: Blood Concentration of the Compound
Protocol: (§1) Male Wistar rats weighing 180-250 g were fed with only water overnight. The next day the rats were orally administered with 50 mg/kg of a test compound which was dissolved in a buffer solution having pH of 7. The concentration of the compound in blood of the tested animals (one group consisting of 6 animals) was measured 0.5, 1, 2 and 4 hours after the administration by Bioassay method by using Bacillus subtilis ATCC 6633 strain as an indicator bacteria. In the measurement, an ordinary culture medium was employed, and the preparation of the standard solution and other method were carried out in according to Japanese Antibiotical Pharmaceutical Standards. Further, the concentration of the compound in blood was also measured by high performance liquid chromatography. The blood concentration shown below was an average value of each animal group.
The blood concentration of the compounds as obtained in Examples 12-15 and the compounds as obtained in the same manner as in Examples 3 and 12, respectively, was measured. The measurement was carried out in the same manner as Example 16 except that the test compound was suspended in a CMC aqueous solution instead of being dissolved in a buffer solution having pH of 7.

Staph. aureus MS 27 = assay: MIC (Table 4); type: cell-based; conditions: 10^8 cells/ml; unit assumed
From the text: (§2) | MIC Value (10^8 cells/ml)

E. Coli NIHJ-JC2 = assay: MIC (Table 4); type: cell-based; conditions: 10^8 cells/ml; unit assumed
From the text: as §2

[2] = system: Klebs. pneumoniae ATCC 10031; assay: MIC (Table 4); type: cell-based; conditions: 10^8 cells/ml; unit assumed
From the text: as §2

E. Coli W3630 ps 3 = assay: MIC (Table 4); type: cell-based; conditions: 10^8 cells/ml; unit assumed
From the text: as §2

[3] = system: Salm enteritidis Gaertner; assay: MIC (Table 4); type: cell-based; conditions: 10^8 cells/ml; unit assumed
From the text: as §2

Staph. aureus 0003 = assay: MIC (Table 4); type: cell-based; conditions: 10^8 cells/ml; unit assumed
From the text: as §2

E. Coli W3630 = assay: MIC (Table 4); type: cell-based; conditions: 10^8 cells/ml; unit assumed
From the text: as §2

Staph. aureus ATCC 6538p = assay: MIC (Table 4); type: cell-based; conditions: 10^8 cells/ml; unit assumed
From the text: as §2

[4] = Absorption test, oral, rats, solution in buffer pH 7 (Example 16); type: in vivo, Male Wistar rats; conditions: blood, 50 mg/kg oral, rat, average of 6, read-out: Blood Concentration of the Compound
Protocol: The absorption test of the compounds as obtained in Examples 1-11 were tested by the following method.
as §1

In the case of “7-β-[4-(2'-amino-2'-carboxy)ethylimidazol-2-yl-thioacetamido]-7α-methoxy-3-[(1-methyl-1H-tetrazol-5-yl) thiomethyl]-3-cephem-4-carboxylic acid ditert-butylcarboxymethyl ester [(19)]”, the “Blood Concentration of the Compound” value ([1]; 0.5 hr.) is reported as 7200 ng/mL, the “Blood Concentration of the Compound” value ([1]; 1 hr.) is reported as 3900 ng/mL and the “Blood Concentration of the Compound” value ([1]; 4 hrs.) is reported as 1600 ng/mL.

For CC(=O)NC(Cc1c[nH]c(SCC(=O)NC2C(=O)N3C(C(=O)O)=C(CSc4nnc(C)s4)CSC23)n1)C(=O)O (stereo not drawn) [(18), 7-β-[4-(2'-methylamido-2'-carboxy)ethylimidazol-2-yl-thioacetamido]-3-[2-(2-methyl-1,3,4-thiazolyl)thiomethyl]-3-cephem-4-carboxylic acid], the “Blood Concentration of the Compound” value ([1]; 0.5 hr.) was 10300 ng/mL, the “Blood Concentration of the Compound” value ([1]; 1 hr.) was 11200 ng/mL and the “Blood Concentration of the Compound” value ([1]; 4 hrs.) was 4900 ng/mL.

Work on CC1=C(C(=O)O)N2C(=O)[C@@H](NC(=O)[C@H](N)c3ccccc3)[C@H]2SC1 [Cephalexin, reference compound] yielded an MIC Value (Staph. aureus MS 27) of 50 µg/mL (≈ 144 µM), an MIC Value (E. Coli NIHJ-JC2) of over 100 µg/mL and an MIC Value [2] of 25 µg/mL (≈ 72 µM). The MIC Value (E. Coli W3630 ps 3) was over 100 µg/mL, the MIC Value [3] was over 100 µg/mL and the MIC Value (Staph. aureus 0003) was 50 µg/mL (≈ 144 µM). It also gave an MIC Value (E. Coli W3630) of over 100 µg/mL and an MIC Value (Staph. aureus ATCC 6538p) of 3.1 µg/mL (≈ 8.92 µM).

With CC(=O)OCC1=C(C(=O)O)N2C(=O)[C@@H](NC(=O)CSc3nc(C[C@H](N)C(=O)O)c[nH]3)[C@H]2SC1 [Example 1, 7-β-[4-(2'-amino-2'-carboxy)ethylimidazol-2-yl-thioacetamido]-3-acetoxymethyl-3-cephem-4-carboxylic acid] the concentration at 0.5 h [4] was 3600 ng/mL, the concentration at 1 h [4] was 1600 ng/mL and the concentration at 2 h [4] was 800 ng/mL. The concentration at 4 h [4] was 500 ng/mL, the MIC Value (Staph. aureus MS 27) was 12.5 µg/mL (≈ 25 µM) and the MIC Value (E. Coli NIHJ-JC2) was 50 µg/mL (≈ 100 µM). For the same compound, the MIC Value [2] was 25 µg/mL (≈ 50 µM), the MIC Value (E. Coli W3630 ps 3) was 100 µg/mL (≈ 200 µM) and the MIC Value [3] was 100 µg/mL (≈ 200 µM). It also gave an MIC Value (Staph. aureus 0003) of 12.5 µg/mL (≈ 25 µM), an MIC Value (E. Coli W3630) of 100 µg/mL (≈ 200 µM) and an MIC Value (Staph. aureus ATCC 6538p) of 3.1 µg/mL (≈ 6.21 µM).

For N[C@@H](Cc1c[nH]c(SCC(=O)N[C@@H]2C(=O)N3C(C(=O)O)=CCS[C@H]23)n1)C(=O)O [Example 11, 7-β-[4-(2'-amino-2'-carboxy)ethylimidazol-2-yl-thioacetamido]-3-cephem-4-carboxylic acid], the concentration at 0.5 h [4] was 8300 ng/mL, the concentration at 1 h [4] was 7400 ng/mL and the concentration at 2 h [4] was 4200 ng/mL. For the same compound, the concentration at 4 h [4] was 1800 ng/mL.

CO[C@@]1(NC(=O)CSc2nc(C[C@H](N)C(=O)O)c[nH]2)C(=O)N2C(C(=O)O)=C(COC(C)=O)CS[C@@H]21 [Example 12, 7-β-[4-(2'-amino-2'-carboxy)ethylimidazol-2-yl-thioacetamido]-7α-methoxy-3-acetoxymethyl-3-cephem-4-carboxylic acid] gave a concentration at 0.5 h ([1]; 0.5 hr.) of 3900 ng/mL, a concentration at 1 h ([1]; 1 hr.) of 1700 ng/mL and a concentration at 4 h ([1]; 4 hrs.) of 400 ng/mL.

CO[C@@]1(NC(=O)CSc2nc(C[C@H](N)C(=O)O)c[nH]2)C(=O)N2C(C(=O)O)=C(CSc3nnnn3C)CS[C@@H]21 [Example 13, 7-β-[4-(2'-amino-2'-carboxy)ethylimidazol-2-yl-thioacetamido]-7α-methoxy-3-[(1-methyl-1H-tetrazol-5-yl)thiomethyl]-3-cephem-4-carboxylic acid] gave a concentration at 0.5 h ([1]; 0.5 hr.) of 4600 ng/mL, a concentration at 1 h ([1]; 1 hr.) of 3100 ng/mL and a concentration at 4 h ([1]; 4 hrs.) of 1100 ng/mL.

In the case of CO[C@@]1(NC(=O)CSc2nc(C[C@H](N)C(=O)OCOC(C)=O)c[nH]2)C(=O)N2C(C(=O)OCOC(C)=O)=C(CSc3nnnn3C)CS[C@@H]21 [Example 14, 7-β-[4-(2'-amino-2'-carboxy)ethylimidazol-2-yl-thioacetamido]-7α-methoxy-3-[(1-methyl-1H-tetrazol-5-yl)thiomethyl]-3-cephem-4-carboxylic acid diacetoxymethyl ester], the concentration at 0.5 h ([1]; 0.5 hr.) is reported as 6800 ng/mL, the concentration at 1 h ([1]; 1 hr.) is reported as 4100 ng/mL and the concentration at 4 h ([1]; 4 hrs.) is reported as 2300 ng/mL.

In the case of Cn1nnnc1SCC1=C(C(=O)O)N2C(=O)[C@@H](NC(=O)CSc3nc(C[C@H](NC=O)C(=O)O)c[nH]3)[C@H]2SC1 [Example 15, 7-β-[4-(2'-formamido-2'-carboxy)ethylimidazol-2-yl-thioacetamido]-3-[(1-methyl-1H-tetrazol-5-yl)thiomethyl]-3-cephem-4-carboxylic acid], the concentration at 0.5 h ([1]; 0.5 hr.) is reported as 3900 ng/mL, the concentration at 1 h ([1]; 1 hr.) is reported as 2700 ng/mL and the concentration at 4 h ([1]; 4 hrs.) is reported as 1700 ng/mL.

Compound Cn1nnnc1SCC1=C(C(=O)O)N2C(=O)[C@@H](NC(=O)CSc3nc(C[C@H](N)C(=O)O)c[nH]3)[C@H]2SC1 [drawing 11] has an MIC Value (Staph. aureus MS 27) of 12.5 µg/mL (≈ 22.5 µM), an MIC Value (E. Coli NIHJ-JC2) of 25 µg/mL (≈ 45 µM) and an MIC Value [2] of 12.5 µg/mL (≈ 22.5 µM). The MIC Value (E. Coli W3630 ps 3) was 25 µg/mL (≈ 45 µM), the MIC Value [3] was 12.5 µg/mL (≈ 22.5 µM) and the MIC Value (Staph. aureus 0003) was 12.5 µg/mL (≈ 22.5 µM). The MIC Value (E. Coli W3630) was 25 µg/mL (≈ 45 µM) and the MIC Value (Staph. aureus ATCC 6538p) was 1.6 µg/mL (≈ 2.88 µM).

In the case of Cc1nnc(SCC2=C(C(=O)O)N3C(=O)[C@@H](NC(=O)CSc4nc(C[C@H](N)C(=O)O)c[nH]4)[C@H]3SC2)s1 [drawing 13], the MIC Value (Staph. aureus MS 27) is reported as 25 µg/mL (≈ 43.7 µM), the MIC Value (E. Coli NIHJ-JC2) is reported as 50 µg/mL (≈ 87.5 µM) and the MIC Value [2] is reported as 25 µg/mL (≈ 43.7 µM). It also gave an MIC Value (E. Coli W3630 ps 3) of 50 µg/mL (≈ 87.5 µM), an MIC Value [3] of 50 µg/mL (≈ 87.5 µM) and an MIC Value (Staph. aureus 0003) of 25 µg/mL (≈ 43.7 µM). For the same compound, the MIC Value (E. Coli W3630) was 50 µg/mL (≈ 87.5 µM) and the MIC Value (Staph. aureus ATCC 6538p) was 1.6 µg/mL (≈ 2.8 µM).
